In one test the test system is obsessive sexual desire. Particulars: two cases; regular fixed dosage regimen over a longer period; after several treatments; cited from earlier work.
Test [1] deals with patients with paraphilic patterns of sexual excitation/arousal. In words: Case reports: acute nasal naloxone in two paedophilic patients, self-rated impulse control. It counts as in vivo, human. Particulars: one or two puffs of nasal spray, 0.2 mg Naloxonhydrochloride per puff. The text has this: In the clinical application (two patients with paraphilic patterns of sexual excitation/arousal, both paedophiles, but with individual symptomatology) the following observations were made:
The patient is a person with paedophile inclination towards sexually immature girls (in addition to their predominant orientation towards adult women). In their first marriage they had repeatedly abused the child of their spouse […] (touching the genitals of the child, as well as having themself touched until reaching the climax). These crimes have not yet become known or led to any form of legal prosecution, and this first marriage is divorced since several years. Owing to their job as music teacher the patient was increasingly in contact with girls of the preferred age during the recent two years; the patient was very worried (and this worry was justified) that they might exploit the situation for the sexual abuse of their pupils. In the course of treatment at the Institute for Sexual Medicine of the Charité University Clinic of Berlin the patient has changed their professional field so that they are mainly involved in the treatment of grown-ups. […]

Molecules are shown by their SMILES.

Regarding `O=C1CC[C@@]2(O)[C@H]3Cc4ccc(O)c5c4[C@@]2(CCN3CC2CC2)C1O5` (stereo partly drawn) [Naltrexon, 17-cyclopropylmethyl-3,14-dihydroxy-4,5-epoxy-morphinan-6-on], the “frequency of obsessive sexual desire” value with obsessive sexual desire was “reduction in frequency of obsessive sexual desire could be observed”.

On to `C=CCN1CC[C@]23c4c5ccc(O)c4O[C@H]2C(=O)CC[C@@]3(O)[C@H]1C5` [naloxone, 17-allyl-3,14-dihydroxy-4,5-epoxy-morphinan-6-on], for which, in test [1] (patient 1 (marked expression of symptoms)), the “sexual interest in the child” value was “sufficient reduction of their sexual interest in the child”. The “sexual interest in child one” value in test [1] (patient 2 (moderate expression of symptoms)) was “reduction of their sexual interest in child one”.

Source of the values: patent publication US20120083505A1, “Use of opioid receptor antagonists for acute treatment of paraphilic arousal states” (priority 2009, published 2012).
